In patent US10953027B2, “Active agents and methods of their use for the treatment of metabolic disorders and nonalcoholic fatty liver disease” (Flagship Pioneering Innovations V, Inc., priority 2018, dated 2021):

How the values were obtained:
[1] = test system: Human Peripheral Blood Monocytes (PBMCs); assay: Cytokine release from human PBMCs; format: cell-based; details: 100 μM, LPS, 24 hours
Experimental: Human donor blood (8 mL) was collected in sodium citrate CPT tubes and centrifuged at 1,600×g for 20 minutes at room temperature. […] PBMCs samples were centrifuged at 400×g for 10 minutes at 10° C. […] PBMCs were filtered through a 70 micron mesh to remove any cellular debris. […] PBMCs in a 96-well plate were rested for 30 minutes in a 37° C., 5% CO2 incubator, then subsequently treated with 10 μl of indicated compound. After 2 hours 10 μL of LPS (O111:B4) 1 mg/mL was added to test wells. After 24 hours of incubation at 37° C., 5% CO2, 100 μL of cell supernatant was collected and transferred to a 96-well plate (non-tissue treated, flat bottom). The plate was centrifuged at 350×g for 5 minutes at room temperature, and then the clear supernatant transferred to a new 96-well plate (non-tissue treated, flat bottom). The remaining cells were tested for viability using CellTiter-Glo® Luminescent Cell Viability Assay (Promega). The supernatant was analyzed for TNFα, IL-6 and IL-1β (kit LXSAHM-03; R&D Systems), using Luminex Immunoassay Technology (MAGPIX System). Cytokine levels of LPS treated DMSO control samples were set to 100%, and compound treated samples were expressed relative to this (Table 13).

[2] = test system: Primary human subcutaneous adipocytes; assay: Glucose uptake in human subcutaneous adipocytes, insulin sensitive model; format: cell-based
Experimental: Primary human subcutaneous adipocytes (Zen Bio, Research Triangle Park, N.C.) were differentiated for two weeks prior to treatment. Cells were treated with indicated compounds diluted in (dimethyl-sulfoxide) DMSO in serum free medium for 24 hours in triplicate. After 24 hours, media was exchanged for assay buffer and the compounds were added again but in the presence of approximately 1 nM insulin. Glucose uptake was initiated with the addition of a cocktail containing 2-deoxyglucose and ^3H-2-deoxyglucose and allowed to incubate for 2 hours. Cells were washed, lysed and glucose uptake was measured as counts per well. As an assay control, 100 nM of insulin was used during the 2 hours of glucose uptake. […] Statistical changes in glucose uptake were determined by way ANOVA and compared to DMSO.

[3] = test system: Primary human subcutaneous adipocytes; assay: Glucose uptake in human subcutaneous adipocytes, insulin resistant model; format: cell-based
Experimental: As described above, primary human subcutaneous adipocytes were differentiated for two weeks prior to treatment. To induce an insulin resistant state, cells were treated in serum free Dulbecco's Modified Eagle Medium (high glucose) and […] for 24 hours. Cells were simultaneously treated with compounds diluted in DMSO for 24 hours. As described above, after 24 hours, media was exchanged for assay buffer and the compounds were added again but in the presence of approximately 1 nM insulin. Cells were washed and lysed after 2 hours and glucose uptake was measured. […] Statistical changes in glucose uptake were determined by way ANOVA and compared to DMSO.

Caco-2 colonocytes = assay: Human Caco-2 barrier integrity assay (TEER); format: cell-based; details: 48 hours
Experimental: Caco-2 colonocytes were maintained at 37° C. and 5% CO2 in Dulbecco's Modified Eagle Medium (DMEM) and supplemented with 10% FBS, 1% NEAA, 1% penicillin-streptomycin. At 70-80% confluency, cells were trypsinized and seeded in 0.4 cm^2 transwell collagen I coated membranes with supplemented DMEM in both apical and basolateral compartments. Cells were seeded at a density of 200,000 cells per well and maintained for 10 days to form a polarized barrier with a TransEpithelial Electrial Resistance (TEER) reading above 1000Ω. On the first day of the assay, initial TEER readings were taken and cytokines were added to the basolateral media (50 ng/mL TNFα, 25 ng/mL IFNγ and 10 ng/mL IL-1β) to reduce barrier integrity while compounds diluted in (dimethylsulfoxide) DMSO were added to the apical media in triplicate. After 48 hours, TEER readings were taken again and viability was measured by CellTiter 96® AQueous One Solution Cell Proliferation Assay (Promega). The percent change in TEER over the 48 hours was determined and normalized to the 0.1% DMSO control (Table 6).

Mouse 3T3-L1 cells = assay: Mouse adipocyte lipolysis assay; format: cell-based; details: Mus musculus, 3T3-L1, 24 hours, read-out: Lipolysis Free Fatty Acids % DMSO
Experimental: Once the cells became confluent, they were seeded into a tissue culture treated 96 well plate. […] After 14 days of differentiation, cells were treated with compounds of interest. After 24 hours post-treatment, the cell viability was assessed using CellTiter-Glo Luminescent Cell Viability Assay from Promega, and lipolysis was determined using Lipolysis Assay Kit from ZenBio.

naïve CD4+ T cells = assay: Human regulatory T cell differentiation assay; format: cell-based; details: 6 days
Experimental: Peripheral blood mononuclear cells (PBMCs) from whole blood donated by health volunteers were separated by Ficoll-Paque gradient centrifugation and naïve CD4^+ T cells were subsequently isolated using magnet beads (EasySep™ Human Naïve CD4^+ T Cell Isolation Kit, Cambridge, Mass.). For regulatory T cell (Treg) differentiation assay, naïve CD4^+ T cells were cultured (1-10×10^4 cells) in CTS OpTmizer medium for 6 days and stimulated with 5 ng/ml TGF-β, 100 U/ml IL-2, and ImmunoCult™ Human […] T Cell Activator; Stemcell #10990) with/without our Compounds. Cell viability was determined using a viability dye (eBioscience Fixable Viability Dye eFluor 780: ThermoFisher 65-0865-14) at 1:500 dilution. The cells were gated for Treg, defined as Live, CD11c^−, CD14^−, CD19^−, CD8^−, CD4^+, CD3^+, CD25^+, FOXP3^+. Percent (%) Tregs were calculated as percentage of CD4^+, CD25^+, FOXP3^+ cells over total CD4^+ T cells. Statistical analysis was performed with GraphPad Prism Software Using One-Way ANOVA.

Mouse myocyte = Mouse myocyte lipolysis assay; format: cell-based; details: Mus musculus, read-out: Free glycerol % DMSO
Experimental: Cells were obtained from ATCC and cultured in Dulbecco's Modified Eagle's medium (DMEM) containing 20% fetal bovine serum and 1% penicillin/streptomycin at 37° C. in an incubator with 5% CO2. Once the cells became confluent, they were seeded into a tissue culture treated 96 well plate. The next day, the medium containing DMEM with 2% equine serum was used to start differentiation. Once cells were fully differentiated, they were treated with indicated compounds.

Male DIO mice = assay: In vivo evaluation for glucose disposal and lipidemia in DIO mice (Example 11); details: 0.045% in HFD
Experimental: The DIO mice were prepared by feeding male C57BL/6 mice a high fat diet (HFD, Research Diets D12492) from 6-14 weeks of age. DIO mice were housed individually and maintained on the HFD through the duration of study. A twelve-hour light cycle was maintained with room temperature maintained at 22-25° C. All of the mice were acclimated to the facility for 5 days prior to starting the study.
Following 5 days of facility acclimation, DIO mice were randomized into 8 groups of 10 based on body weight and blood glucose for assignment to treatment, as shown in Table 9:
All treatments were administered admixed in HFD (Research Diets, New Brunswick N.J.) and were provided ad libitum for 30 days. Drinking water for group 7 was supplemented with 1, 3 Butanediol at 3% concentration.
Body weight was recorded at baseline and twice weekly thereafter. Feed and water intakes were recorded each Monday, Wednesday, and Friday.
Blood samples (<3 μL) were obtained one hour post dose by tail clip at baseline and weekly thereafter for measurement of fed blood glucose by StatStrip. Additional anti-coagulated blood samples (100 μl, EDTA di-potassium salt) were obtained by tail clip one hour post-dose at baseline, day 14 and day 30. Anti-coagulated samples were quick frozen and stored on dry ice.
Animals were subjected to a 16 hour fast for performance of an oral glucose tolerance test (OGTT) on day 28. Blood samples were obtained via tail clip just prior to (8 am) and 15, 30, 60, 90, and 120 minutes post-glucose load (2.0 g/kg, PO) for assay of whole blood glucose (StatStrip). Feed was returned following last sample.
Animals were terminated on day 30-31 using CO2 inhalation and induction of pneumothorax. Terminal blood samples were obtained by cardiac puncture. Whole blood was processed to serum and analyzed for serum cholesterol, triglycerides, high density lipoprotein (HDL), low density lipoprotein (LDL) and non-esterified fatty acids (NEFA) using AU480 clinical analyzer.
Organ weights (liver, spleen, subcutaneous fat, inguinal fat, abdominal fat, and epididymal fat) were recorded. Sections of each fat were frozen or fixed in 4% paraformaldehyde/PBS, pH 6.9; Fat samples were placed on dry ice. Fixed liver samples (4% paraformaldehyde) were sent to Premier Laboratories for H&E staining and scoring for steatosis, inflammation and fibrosis. Spleen samples were prepared in ice cold 5% bovine serum albumin (BSA) in PBS or 4% paraformaldehyde. Sections of brain, heart, lung, and small and large intestine were fixed in 10% formalin.
All data are represented as group mean±SEM. Data were analyzed using JMP (SAS software). All normalizations were calculated using terminal body weight.
Baseline differences among groups were identified using Tukey-Kramer Hsd<0.05. Treatment effects compared to control were determined using Oneway ANOVA (*, p<0.05) followed by Dunnett's test where appropriate.

Structure (SMILES): CCC(=O)O [Propionate, propionate]
- IL6 % DMSO control [1]: + ((+) 50%≥ <90% DMSO)
- ILβ % DMSO control [1]: + ((+) 50%≥ <90% DMSO)
- TNFα % of DMSO control [1]: + ((+) 50%≥ <90% DMSO)
- Insulin Sensitive % DMSO (glucose uptake) ([2]; 3 mM): = (50%> ≤110%: =)
- Insulin Resistant % DMSO (glucose uptake) ([3]; 3 mM): = (50%> ≤110%: =)
- % Change in TEER from DMSO (Caco-2 colonocytes; 1 mM + cytokines): + (125%> ≤150%: +)
- % Change in TEER from DMSO (Caco-2 colonocytes; 3 mM + cytokines): ++ (150%≥ ≤200%: ++)

Structure (SMILES): CN(CCOc1ccc(CC2SC(=O)NC2=O)cc1)c1ccccn1 (stereo not drawn) [Rosiglitazone, rosiglitazone, reference compound]
- activity at 100 µM (Mouse 3T3-L1 cells): ≤ 50%
- Cell viability % DMSO (naïve CD4+ T cells; 10 uM): = (90%≥ ≤110%: =)
- Cell viability % DMSO (naïve CD4+ T cells; 100 uM): − (<90%: −)
- activity at 10 µM (naïve CD4+ T cells; Homo sapiens, CD4+ T, 144 h, 10 uM, read-out: Treg induction % DMSO): 90 to 110%
- activity at 100 µM (naïve CD4+ T cells; Homo sapiens, CD4+ T, 144 h, 100 uM, read-out: Treg induction % DMSO): 90 to 110%
- activity at 10 µM (Mouse myocyte; 10 μM): 50 to 70%
- activity at 100 µM (Mouse myocyte; 100 μM): 50 to 70%
- Abdominal fat (% BW) (Male DIO mice): *1.6 ± 0.1 % BW
- Blood glucose (fed) change compared to baseline (Male DIO mice): −22.8±3.7%
- Epididymal fat (% BW) (Male DIO mice): 4.1 ± 0.2 % BW
- Inguinal fat (% BW) (Male DIO mice): 0.78 ± 0.05 % BW
- Subcutaneous fat (% BW) (Male DIO mice): *7.6 ± 0.5 % BW
- Fasting blood glucose levels (time 0 from OGTT) (Male DIO mice; 28 days, 16 hour fast): 91.3 ± 2.5 mg/dL
- change in body weight from baseline (Male DIO mice; 30 days): 22.8±1.9%
- Cholesterol (Male DIO mice; terminal (fed) serum): *121.5 ± 7.3 mg/dL
- HDL (Male DIO mice; terminal (fed) serum): *60.5 ± 3.0 mg/dL
- LDL (Male DIO mice; terminal (fed) serum): 8.0 ± 0.5 mg/dL
- NEFA (Male DIO mice; terminal (fed) serum): *0.71 ± 0.04 mEq/L
- Triglycerides (Male DIO mice; terminal (fed) serum): 91.3 ± 4.8 mg/dL

Structure (SMILES): C[C@@H](O)CCO [(R)-1,3-Butanediol, (3R)-butane-1,3-diol]
- activity at 100 µM (Mouse 3T3-L1 cells): 50 to 70%
- activity at 500 µM (Mouse 3T3-L1 cells; 0.5 mM): 50 to 70%
- Cell viability % DMSO (naïve CD4+ T cells; 100 uM): = (90%≥ ≤110%: =)
- Cell viability % DMSO (naïve CD4+ T cells; 0.5 mM): = (90%≥ ≤110%: =)
- activity at 500 µM (naïve CD4+ T cells; Homo sapiens, CD4+ T, 144 h, 0.5 mM, read-out: Treg induction % DMSO): 90 to 110%
- Insulin Sensitive % DMSO (glucose uptake) ([2]; 100 μM): = (50%> ≤110%: =)
- Insulin Sensitive % DMSO (glucose uptake) ([2]; 500 μM): ++ (140%≥ ≤200%: ++)
- insulin-mediated glucose uptake ([2]; insulin sensitive model, compared to DMSO): significantly enhanced insulin-mediated glucose uptake
- activity at 500 µM (Mouse myocyte; 0.5 mM): 70 to 90%
- Insulin Resistant % DMSO (glucose uptake) ([3]; 100 μM): = (50%> ≤110%: =)
- Insulin Resistant % DMSO (glucose uptake) ([3]; 500 μM): = (50%> ≤110%: =)

Structure (SMILES): CCCC(=O)O [Butyrate, butyrate]
- IL6 % DMSO control [1]: + ((+) 50%≥ <90% DMSO)
- ILβ % DMSO control [1]: − ((−) ≥110% DMSO;)
- TNFα % of DMSO control [1]: ++ ((++) <50% DMSO)
- Insulin Sensitive % DMSO (glucose uptake) ([2]; 3 mM): − (<50%: −)
- Insulin Resistant % DMSO (glucose uptake) ([3]; 3 mM): + (110%> ≤140%: +)
- % Change in TEER from DMSO (Caco-2 colonocytes; 1 mM + cytokines): − (≤125%: −)
- % Change in TEER from DMSO (Caco-2 colonocytes; 3 mM + cytokines): − (≤125%: −)
- % Change in TEER from DMSO (Caco-2 colonocytes; 5 mM + cytokines): ++ (150%≥ ≤200%: ++)
